Measurements published in patent US20100120763A1, “IMIDAZO[5,1-C][1,2,4]BENZOTRIAZINE DERIVATIVES AS INHIBITORS OF PHOSPHODIESTERASES” (priority 2008, published 2010).
Read-outs that look alike come from different tables or passages of the source.

Tests used:
PDE10A = biological target: T1, PDE10A (Homo sapiens, UniProt Q9Y233); test: Inhibition of recombinant PDE10A (baculovirus/SF21 system), [3H]-cAMP SPA; type: biochemical; conditions: recombinant PDE10A1, cytosolic; 0.1 μM [3H]-cAMP, 37° C., 30 minutes; read-out: PDE10A IC50
T1 construct: made in house; host or cells: SF21 insect cells (baculovirus)
T1 sequence (Q9Y233 1-779 isoform Q9Y233-1): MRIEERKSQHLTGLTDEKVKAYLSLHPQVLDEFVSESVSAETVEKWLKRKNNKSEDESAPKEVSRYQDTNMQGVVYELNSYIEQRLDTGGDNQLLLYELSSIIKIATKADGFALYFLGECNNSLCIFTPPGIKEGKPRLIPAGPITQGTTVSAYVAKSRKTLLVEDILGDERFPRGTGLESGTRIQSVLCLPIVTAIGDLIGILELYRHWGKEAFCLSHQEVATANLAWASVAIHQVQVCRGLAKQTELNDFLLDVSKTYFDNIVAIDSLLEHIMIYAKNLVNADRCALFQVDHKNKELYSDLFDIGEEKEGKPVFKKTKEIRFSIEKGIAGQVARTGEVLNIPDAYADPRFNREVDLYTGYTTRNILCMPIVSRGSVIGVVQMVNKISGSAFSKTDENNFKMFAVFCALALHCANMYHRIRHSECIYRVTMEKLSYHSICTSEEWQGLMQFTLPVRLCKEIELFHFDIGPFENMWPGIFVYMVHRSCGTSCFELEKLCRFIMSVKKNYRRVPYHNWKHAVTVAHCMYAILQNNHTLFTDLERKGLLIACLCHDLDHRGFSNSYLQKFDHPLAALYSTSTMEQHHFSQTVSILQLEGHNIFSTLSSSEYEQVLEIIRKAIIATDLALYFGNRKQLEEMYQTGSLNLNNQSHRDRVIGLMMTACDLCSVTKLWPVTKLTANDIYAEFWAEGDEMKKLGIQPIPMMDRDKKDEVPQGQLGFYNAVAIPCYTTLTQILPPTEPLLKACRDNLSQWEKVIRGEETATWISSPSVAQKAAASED
Experimental: Inhibition of Recombinant PDE10A (Baculovirus/SF21 System)
The gene was than inserted into a baculovirus vector, ligated with the baculovirus DNA. The enzyme-protein was expressed in SF21-cells. The enzyme was isolated from these cells by harvesting the cells by an centrifugation at 500 g to collect the cells.
The cells were resuspended in 50 mM Tris-HCl/1 mM EDTA/250 mM Sucrose buffer, pH=7.4 (Sigma, Deisenhofen, Germany; Merck, Darmstadt, Germany) and lysed by sonification of the cells (three times for 15 seconds, Labsonic U, Fa. Braun, Degersheim, Switzerland, level “high”). The cytosolic PDE10A was obtained by a centrifugation at 48,000 g for 1 h in the supernatant and stored at −70° C.
PDE activity was determined in a one step procedure in microtiter plates. The reaction mixture of 100 μl contained 50 mM Tris-HCl/5 mM MgCl2 buffer (pH=7.4, Sigma, Deisenhofen, Germany; Merck, Darmstadt, Germany) 0.1 μM [3H]-cAMP (Amersham, Buckinghamshire, UK) and the enzyme. Non-specific enzyme activity was determined without the enzyme. The reaction was initiated by addition of the substrate solution and was carried out at 37° C. for 30 minutes. Enzymatic activity then was stopped by addition of 25 μl Ysi-SPA-beads (Amersham-Pharmacia). One hour later the mixture was measured in a liquid scintillation counter for microtiter plates (Microbeta Trilux). The Biomek 2000 (Beckman) was used routinely for pipetting of the incubation mixture. […] For determination of IC50 values the Hill-plot, 2-parameter-model, was used.

PDE2A = biological target: T2, PDE2A (Homo sapiens, UniProt O00408); test: Inhibition of recombinant PDE2A (expressed in baculovirus/SF21-cells), [3H]-cAMP SPA; type: biochemical
T2 construct: made in house; host or cells: SF21 insect cells (baculovirus)
T2 sequence (O00408 whole entry): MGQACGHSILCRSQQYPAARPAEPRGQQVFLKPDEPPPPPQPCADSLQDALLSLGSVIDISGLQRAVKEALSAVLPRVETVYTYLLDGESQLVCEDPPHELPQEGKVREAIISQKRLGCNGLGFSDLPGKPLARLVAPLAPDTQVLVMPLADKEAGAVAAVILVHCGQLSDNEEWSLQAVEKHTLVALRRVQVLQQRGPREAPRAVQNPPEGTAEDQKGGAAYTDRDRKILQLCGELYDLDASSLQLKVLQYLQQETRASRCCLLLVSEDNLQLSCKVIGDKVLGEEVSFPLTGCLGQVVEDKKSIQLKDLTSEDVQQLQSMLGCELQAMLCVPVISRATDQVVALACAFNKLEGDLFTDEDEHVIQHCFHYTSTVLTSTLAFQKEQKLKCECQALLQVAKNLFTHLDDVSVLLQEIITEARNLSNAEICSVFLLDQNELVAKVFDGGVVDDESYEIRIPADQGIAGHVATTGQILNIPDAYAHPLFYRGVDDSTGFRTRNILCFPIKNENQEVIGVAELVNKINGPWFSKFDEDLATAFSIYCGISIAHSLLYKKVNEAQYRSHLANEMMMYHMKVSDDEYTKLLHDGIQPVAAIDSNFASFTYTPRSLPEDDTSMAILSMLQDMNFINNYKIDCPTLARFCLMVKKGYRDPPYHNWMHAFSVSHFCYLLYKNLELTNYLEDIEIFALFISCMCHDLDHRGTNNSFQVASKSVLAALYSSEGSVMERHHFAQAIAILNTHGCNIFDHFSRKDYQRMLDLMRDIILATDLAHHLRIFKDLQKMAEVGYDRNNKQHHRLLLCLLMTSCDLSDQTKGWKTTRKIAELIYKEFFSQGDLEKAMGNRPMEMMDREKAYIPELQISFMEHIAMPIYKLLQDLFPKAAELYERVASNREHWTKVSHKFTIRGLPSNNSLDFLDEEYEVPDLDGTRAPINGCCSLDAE
Experimental: Inhibition of Recombinant PDE2A (Expressed in Baculovirus/SF21-Cells)
PDE2A (NM002599) was cloned and the gene was inserted in the baculovirus and the enzyme-protein expressed in SF21-cells. The enzyme was isolated from these cells by harvesting the cells by an centrifugation at 200 g to collect the cells. The cells were resuspended in 50 mM Tris-HCl/5 mM MgCl2 buffer (pH=7.4) (Sigma, Deisenhofen, Germany; Merck, Darmstadt, Germany) and lysed by a sonication of the cells (three times for 15 seconds, Labsonic U, Fa. Braun, Degersheim, Switzerland, level “high”). The membrane fraction of PDE2A was obtained by a centrifugation at 48 000 g for 1 h, resuspended in buffer and stored at −70° C.
PDE2A activity was determined in a one step procedure in microtiterplates. The reaction mixture of 100 μl contained 50 mM Tris-HCl/5 mM MgCl2 buffer (pH=7.4) (Sigma, Deisenhofen, Germany; Merck, Darmstadt, Germany), 0.5 μM [3H]-cAMP (Amersham, Buckinghamshire, UK), 1000 nM cGMP and the enzyme. Non-specific enzyme activity was tested in the absence of cGMP. The reaction was initiated by addition of the substrate solution and was carried out at 37° C. for 30 minutes. Enzymatic activity then was stopped by addition of 25 μl SPA-beads (Amersham-Pharmacia). One hour later the mixture was measured in a liquid scintillation counter for microtiterplates (Microbeta Trilux). For pipetting of the incubation mixture the robot Biomek (Fa. Beckman) was routinely used.
For determination of IC50 values the Hill-plot, 2-parameter-model, was used.

Compound | IC50 (PDE10A) | IC50 (PDE2A) | IC50 (PDE2A; recombinant PDE2A, membrane fraction, 0.5 μM [3H]-cAMP, 1000 nM cGMP, 37° C., 30 minutes, read-out: PDE2A IC50)
COc1cc(N2CCOCC2)cc2c1nnc1c(C)nc(-c3ccccc3C)n12 [Example 66, 6-methoxy-3-methyl-1-(2-methylphenyl)-8-morpholin-4-ylimidazo[1,5-c][1,2,4]benzotriazine] | 0.00153 µM | 0.11 µM | 
COc1cc(F)c2nnc3c(C)nc(-c4cc(C)ccc4F)n3c2c1 [Example 75, 6-fluoro-1-(2-fluoro-5-methylphenyl)-8-methoxy-3-methylimidazo[5,1-c][1,2,4]benzotriazine] | 0.015 µM | 0.0139 µM | 
COc1ccc(Cl)cc1-c1nc(C)c2nnc3c(OC)cc(F)cc3n12 [Example 102, 1-(5-chloro-2-methoxyphenyl)-8-fluoro-6-methoxy-3-methylimidazo[5,1-c][1,2,4]benzotriazine] | 0.0145 µM | 0.704 µM | 
COc1cc(F)c2nnc3c(C)nc(-c4cccc(F)c4C)n3c2c1 [Example 84, 6-fluoro-1-(3-fluoro-2-methylphenyl)-8-methoxy-3-methylimidazo[5,1-c][1,2,4]benzotriazine] | 0.0107 µM | 0.061 µM | 
COc1cc(OC)c2nnc3c(C)nc(-c4cnccc4C)n3c2c1 [Example 45, 6,8-dimethoxy-3-methyl-1-(4-methylpyridin-3-yl)imidazo[5,1-c][1,2,4]benzotriazine] | 0.00416 µM | 0.775 µM | 
COc1ccccc1-c1nc(C)c2nnc3c(OC)cc(F)cc3n12 [Example 100, 8-fluoro-6-methoxy-1-(2-methoxyphenyl)-3-methylimidazo[5,1-c][1,2,4]benzotriazine] | 0.00653 µM | 0.894 µM | 
COc1cc(F)c2nnc3c(C)nc(-c4cnccc4C)n3c2c1 [Example 97, 6-fluoro-8-methoxy-3-methyl-1-(4-methylpyridin-3-yl)imidazo[5,1-c][1,2,4]benzotriazine] | 0.146 µM | 0.146 µM | 
COc1cc(F)cc2c1nnc1c(C)nc(-c3cccc(F)c3C)n12 [Example 117, 8-fluoro-1-(3-fluoro-2-methylphenyl)-6-methoxy-3-methylimidazo[5,1-c][1,2,4]benzotriazine] | 0.00355 µM | 1.15 µM | 
COc1cc(OC)c2nnc3c(C)nc(-c4c(C)nn(C)c4C)n3c2c1 [Example 52, 6,8-dimethoxy-3-methyl-1-(1,3,5-trimethyl-1H-pyrazol-4-yl)imidazo[5,1-c][1,2,4]benzotriazine] | 0.00185 µM | 0.292 µM | 
COc1cc(F)c2nnc3c(C)nc(-c4ccncc4)n3c2c1 [Example 87, 6-fluoro-8-methoxy-3-methyl-1-pyridin-4-ylimidazo[5,1-c][1,2,4]benzotriazine] | 0.246 µM | 1.25 µM | 
COc1cc(F)cc2c1nnc1c(C)nc(-c3c(C)noc3C)n12 [Example 115, 1-(3,5-dimethylisoxazol-4-yl)-8-fluoro-6-methoxy-3-methylimidazo[5,1-c][1,2,4]benzotriazine] | 0.067 µM | > 10 µM | 
COc1cc(F)c2nnc3c(C)nc(-c4cnc(F)c(C)c4)n3c2c1 [Example 92, 6-fluoro-1-(6-fluoro-5-methylpyridin-3-yl)-8-methoxy-3-methylimidazo[5,1-c][1,2,4]benzotriazine] | 0.523 µM | 0.469 µM | 
8-fluoro-1-isobutyl-3-methylbenzo[e]imidazo[5,1-c][1,2,4]triazine [Example 9] | 0.156 µM |  | 0.302 µM
COc1cc(N2CCOCC2)cc2c1nnc1c(C)nc(-c3ccncc3C)n12 [Example 63, 6-methoxy-3-methyl-1-(3-methylpyridin-4-yl)-8-morpholin-4-ylimidazo[5,1-c][1,2,4]benzotriazine] | 0.00399 µM | 0.437 µM | 
COc1cc(F)c2nnc3c(C)nc(-c4sc(C)nc4C)n3c2c1 [Example 91, 1-(2,4-dimethyl-1,3-thiazol-5-yl)-6-fluoro-8-methoxy-3-methylimidazo[5,1-c][1,2,4]benzotriazine] | 0.0436 µM | 0.0561 µM | 
COc1cncc(-c2nc(C)c3nnc4c(F)cc(OC)cc4n23)c1 [Example 95, 6-fluoro-8-methoxy-1-(5-methoxypyridin-3-yl)-3-methylimidazo[5,1-c][1,2,4]benzotriazine] | 0.0455 µM | 0.0394 µM | 
COc1ccc(Cl)c(-c2nc(C)c3nnc4c(OC)cc(F)cc4n23)c1 [Example 126, 1-(2-chloro-5-methoxyphenyl)-8-fluoro-6-methoxy-3-methylimidazo[5,1-c][1,2,4]benzotriazine] | 0.00245 µM | 0.108 µM | 
COc1cc(F)c2nnc3c(C)nc(-c4cc(C(N)=O)ccc4F)n3c2c1 [Example 98, 4-fluoro-3-(6-fluoro-8-methoxy-3-methylimidazo[5,1-c][1,2,4]benzotriazin-1-yl)benzamide] | 0.0154 µM | 0.045 µM | 
COc1cc(N2CCOCC2)cc2c1nnc1c(C)nc(-c3cccnc3C)n12 [Example 64, 6-methoxy-3-methyl-1-(2-methylpyridin-3-yl)-8-morpholin-4-ylimidazo[5,1-c][1,2,4]benzotriazine] | 0.00192 µM | 0.0704 µM | 
COc1cc(F)cc2c1nnc1c(C)nc(-c3c(C)nn(C)c3C)n12 [Example 116, 8-fluoro-6-methoxy-3-methyl-1-(1,3,5-trimethyl-1H-pyrazol-4-yl)imidazo[5,1-c][1,2,4]benzotriazine] | 0.0131 µM | 1.5 µM | 
COc1cc(OCc2ccccc2)cc2c1nnc1c(C)nc(-c3ccncc3C)n12 [Example 151, 8-(benzyloxy)-6-methoxy-3-methyl-1-(3-methylpyridin-4-yl)imidazo[5,1-c][1,2,4]benzotriazine] | 0.0007 µM | 0.0806 µM | 
COc1cccc2c1nnc1c(C)nc(-c3ccccc3C)n12 [Example 60, 6-methoxy-3-methyl-1-(2-methylphenyl)imidazo[5,1-c][1,2,4]benzotriazine] | 0.00331 µM | 0.172 µM | 
COc1cc(F)c2nnc3c(C)nc(-c4cc(C(F)(F)F)ccc4Cl)n3c2c1 [Example 82, 1-[2-chloro-5-(trifluoromethyl)phenyl]-6-fluoro-8-methoxy-3-methylimidazo[5,1-c][1,2,4]benzotriazine] | 0.199 µM | 0.0607 µM | 
COc1cccc(-c2nc(C)c3nnc4c(OC)cc(F)cc4n23)c1 [Example 99, 8-fluoro-6-methoxy-1-(3-methoxyphenyl)-3-methylimidazo[5,1-c][1,2,4]benzotriazine] | 0.00911 µM | 20 µM | 
CCOc1ccc(Cl)c(-c2nc(C)c3nnc4c(OC)cc(F)cc4n23)c1 [Example 108, 1-(2-chloro-5-ethoxyphenyl)-8-fluoro-6-methoxy-3-methylimidazo[5,1-c][1,2,4]benzotriazine] | 0.00837 µM | 0.055 µM | 
COc1cc(O)cc2c1nnc1c(C)nc(-c3cnccc3C)n12 [Example 149, 6-methoxy-3-methyl-1-(4-methylpyridin-3-yl)benzo[e]imidazo[5,1-c][1,2,4]triazin-8-ol] | 0.022 µM | 0.451 µM | 
COc1cc(F)cc2c1nnc1c(C)nc(-c3cc(C(N)=O)ccc3F)n12 [Example 128, 4-fluoro-3-(8-fluoro-6-methoxy-3-methylimidazo[5,1-c][1,2,4]benzotriazin-1-yl)benzamide] | 0.00631 µM | 0.654 µM | 
COc1cc(F)cc2c1nnc1c(C)nc(-c3ccncc3)n12 [Example 129, 8-fluoro-6-methoxy-3-methyl-1-pyridin-4-ylimidazo[5,1-c][1,2,4]benzotriazine] | 0.0616 µM | 4.95 µM | 
COc1cc(F)cc2c1nnc1c(C)nc(-c3cc(Cl)ccc3F)n12 [Example 106, 1-(5-chloro-2-fluorophenyl)-8-fluoro-6-methoxy-3-methylimidazo[5,1-c][1,2,4]benzotriazine] | 0.00791 µM | 0.336 µM | 
